The subject of assay [1] is cellular dehydrogenase activity.
For another assay, the system named is nuOXPHOS transcripts. The class given is cell-based, mouse.
Another assay concerns reactive oxygen species. The class given is cell-based, mouse.
A further assay concerns OXPHOS gene expression. Format: cell-based, mouse.
Another assay concerns mtOXPHOS transcripts. The class given is cell-based, mouse.
The subject of assay [2] is mitochondrial membrane potential. Format: cell-based, mouse.
The test system of a further assay is cytochrome c. Format: cell-based, mouse.
The mark [3] stands for this setting: composite Z-score vs DMSO wells, Conc 20 μM.
[4] abbreviates: composite Z-score vs DMSO, Conc 20 μM.
[5] abbreviates: composite Z-score vs mock-treated (DMSO) wells, Conc 20 μM.
Where [6] appears, read: 20 μM, composite Z-score vs DMSO.
Setting [7] is: normalized composite Z-score vs mock-treated (DMSO) wells, Conc 20 μM.
[8] abbreviates: composite Z-score vs DMSO, Conc 15.42 μM.

Read-outs that look alike come from different tables or passages of the source.

In the case of `NS(=O)(=O)c1cc2c(cc1Cl)N=CNS2(=O)=O` [chlorothiazide], the MTT in assay [1] (setting [3]) is −0.711. Further, the nucOX with nuOXPHOS transcripts (setting [3]) is recorded as −0.608. The ROS in the assay with reactive oxygen species (setting [3]) amounted to 1.202. Also, in the assay on OXPHOS gene expression (setting [3]), the GE-HTS is on record as −0.331. Further, the mitoOX in the assay with mtOXPHOS transcripts (setting [3]) worked out at 0.221. In addition, the ΔΨm in assay [2] (setting [3]) is given as −0.831. For the same molecule, the cyt c in the assay with cytochrome c turned out to be 0.431; in the assay on cytochrome c (setting [3]), 0.566. Moreover, the Viability in the assay on C2C12 myotubes (setting [3]) turned out to be 0.116.
With `CN1C[C@H](C(=O)N[C@]2(C)O[C@@]3(O)[C@@H]4CCCN4C(=O)[C@H](Cc4ccccc4)N3C2=O)C[C@@H]2c3cccc4[nH]cc(c34)C[C@H]21` [dihydroergotamine], the MTT in assay [1] (setting [3]) is −0.604. For the same molecule, the nucOX in the assay with nuOXPHOS transcripts (setting [3]) is on record as −0.021. The ROS with reactive oxygen species (setting [3]) stood at 1.157. This molecule yielded a GE-HTS with OXPHOS gene expression (setting [3]) of 0.008. Besides, the mitoOX in the assay with mtOXPHOS transcripts (setting [3]) amounted to 0.143. In assay [2] (setting [3]), the ΔΨm was determined as 0.372. For the same molecule, the cyt c with cytochrome c (setting [3]) is on record as −0.494. In addition, the Viability in the assay on C2C12 myotubes (setting [3]) worked out at 0.293.
In the case of `CC(COc1ccccc1)NC(C)C(O)c1ccc(O)cc1` (stereo not shown) [isoxsuprine], in assay [1] (setting [4]), the MTT was −1.776. Further, in the assay on nuOXPHOS transcripts (setting [4]), the nucOX is recorded as −0.267. For the same molecule, in the assay with reactive oxygen species (setting [4]), the ROS came out at 1.375. Moreover, the GE-HTS in the assay with OXPHOS gene expression (setting [4]) is reported as −0.050. The molecule also gave a mitoOX with mtOXPHOS transcripts (setting [4]) of 0.463. The ΔΨm in assay [2] (setting [4]) is recorded as −1.246. Also, the cyt c is 0.295 in the assay on cytochrome c (setting [4]) and −0.148 in the assay with cytochrome c (composite Z-score vs mock-treated (DMSO) wells, concentration of each compound in μM). The Viability in the assay with C2C12 myotubes (setting [4]) is recorded as −0.141.
With `COc1c(O)cc(O)cc1O` [iretol], in assay [1] (setting [5]), the MTT is −0.086. The nucOX in the assay with nuOXPHOS transcripts (setting [5]) is reported as −0.583. Besides, the ROS in the assay with reactive oxygen species (setting [5]) is given as −0.393. Also, in the assay on OXPHOS gene expression (setting [5]), the GE-HTS is reported as −0.881. Also, in the assay on mtOXPHOS transcripts (setting [5]), the mitoOX is −1.366. Further, the ΔΨm in assay [2] (setting [5]) is on record as −0.404. Further, the cyt c in the assay with cytochrome c (setting [5]) stood at 0.347. Also, the Viability with C2C12 myotubes (setting [5]) is reported as −0.552.
Turning to `ClC1=C(Cl)C2(Cl)C3C4CC(C5OC45)C3C1(Cl)C2(Cl)Cl` (stereo not shown) [endrin], in assay [1] (setting [6]), the MTT is −1.710. The nucOX in the assay on nuOXPHOS transcripts (setting [6]) is recorded as −0.738. Besides, the ROS in the assay on reactive oxygen species (setting [6]) was determined as 0.770. Moreover, the GE-HTS in the assay on OXPHOS gene expression (setting [6]) was −0.680. In addition, the mitoOX in the assay with mtOXPHOS transcripts (setting [6]) was −0.385. In assay [2] (setting [6]), this molecule displayed a ΔΨm of 0.129. This molecule showed a cyt c in the assay on cytochrome c (setting [6]) of 0.726. This molecule gave a Viability in the assay on C2C12 myotubes (setting [6]) of 0.522.
For `Cc1cc(O)c2c(O)c3c(O)cccc3cc2c1` [chrysarobin], the MTT in assay [1] (setting [5]) is −1.646. Further, in the assay on nuOXPHOS transcripts (setting [5]), the nucOX is −1.387. In addition, the ROS in the assay with reactive oxygen species (setting [5]) amounted to 0.805. For the same molecule, the GE-HTS in the assay on OXPHOS gene expression (setting [5]) is given as −1.153. In the assay on mtOXPHOS transcripts (setting [5]), the mitoOX is on record as −0.401. Also, the ΔΨm in assay [2] (setting [5]) is listed as −0.726. For the same molecule, the cyt c in the assay with cytochrome c (setting [5]) is −0.074. The Viability with C2C12 myotubes (setting [5]) was −0.685.
Take `CC(=O)C=CC1C(C)(O)CCC2C(C)(C)CCCC21C` (stereo not shown) [8-hydroxy-15,16-bisnor-11-labden-13-one]: the MTT in assay [1] (setting [7]) is recorded as −0.248. In the assay on nuOXPHOS transcripts (setting [7]), the nucOX is recorded as −0.078. In the assay with reactive oxygen species (setting [7]), this molecule had an ROS of 0.504. Besides, the GE-HTS in the assay with OXPHOS gene expression (setting [7]) is given as −0.554. For the same molecule, the mitoOX in the assay on mtOXPHOS transcripts (setting [7]) is −1.430. Also, the ΔΨm in assay [2] (setting [7]) is on record as 0.798. Also, the cyt c with cytochrome c (setting [7]) is 0.550. In addition, the Viability in the assay with C2C12 myotubes (setting [7]) is −1.702.
Turning to `CC1(C)S[C@@H]2[C@H](NC(=O)C(C(=O)O)c3ccccc3)C(=O)N2[C@H]1C(=O)O` (stereo partly shown) [carbenicillin], the MTT in assay [1] (setting [6]) is −0.565. The nucOX with nuOXPHOS transcripts (setting [6]) is −0.835. In the assay with reactive oxygen species (setting [6]), this molecule returned an ROS of 2.042. In addition, the GE-HTS in the assay on OXPHOS gene expression (setting [6]) is recorded as −0.869. Further, the mitoOX in the assay on mtOXPHOS transcripts (setting [6]) is recorded as −0.823. For the same molecule, the ΔΨm in assay [2] (setting [6]) was determined as 0.298. Also, the cyt c in the assay with cytochrome c (setting [6]) is reported as −0.074. For the same molecule, the Viability in the assay with C2C12 myotubes (setting [6]) is on record as −0.524.
Regarding `O=C(C=C(O)c1ccccc1)c1ccccc1O` [2′,beta-dihydroxychalcone], the MTT in assay [1] (setting [4]) is −1.791. Moreover, the nucOX in the assay on nuOXPHOS transcripts (setting [4]) is listed as −0.188. The same molecule returned an ROS with reactive oxygen species (setting [4]) of 0.194. In addition, the GE-HTS with OXPHOS gene expression (setting [4]) was 0.097. Further, the mitoOX in the assay with mtOXPHOS transcripts (setting [4]) turned out to be 0.600. Moreover, in assay [2] (setting [4]), the ΔΨm is on record as −0.044. Also, the cyt c in the assay on cytochrome c (setting [4]) is given as −0.260. In the assay with C2C12 myotubes (setting [4]), the Viability is listed as −0.801.
Take `CC(C)NC[C@H](O)COc1cccc2ccccc12` [(S)-propranolol]: the MTT in assay [1] (setting [8]) was −0.351. This molecule also returned a nucOX in the assay with nuOXPHOS transcripts (setting [8]) of 0.623. For the same molecule, the ROS in the assay with reactive oxygen species (setting [8]) was −0.185. The molecule further returned a GE-HTS in the assay on OXPHOS gene expression (setting [8]) of 0.857. Also, in the assay with mtOXPHOS transcripts (setting [8]), the mitoOX worked out at 1.161. Besides, the ΔΨm in assay [2] (setting [8]) is recorded as −0.340. The same molecule displayed a cyt c in the assay on cytochrome c (setting [8]) of 0.349. For the same molecule, the Viability with C2C12 myotubes (setting [8]) worked out at 0.307.

Source of the values: patent US20090143279A1 (priority 2007, published 2009).
